What all share (conditions): in vitro conditions
The test system of assay [1] is coffee leaf rust uredospores. In words: In vitro germination of coffee leaf rust uredospores (laboratory tests 2013). Type of assay: cell-based, Hemileia vastarix. Here is the method:
A laboratory methodology to understand the mode of action of PA1 (1%) was developed. The efficacy was performed using coffee leaf rust uredospores, collected in the field.

The next assay relates to Botrytis cinerea. The assay can be described thus: In vitro inhibition of mycelial growth on amended PDA media. Format: cell-based. As for the experimental part:
(§1) Additionally, an in vitro efficacy test was performed in order to determine the effect of PA5 against other Phytopathogens. Each pathogen strain was exposed to 0.5 and 2 cc/l, amended to PDA media. The inhibition percentage was evaluated against the control during 7 days.

The next assay has as its system Phytophthora capcisi. The assay is described as above. Format: cell-based. Here is the method:
as §1

The subject of a further assay is Collectotrichum sp. The description is as above. Type of assay: cell-based. As for the experimental part:
as §1

In the case of `O=C(O)c1ccc(O)c(O)c1` [PA, 3,4-dihydroxybenzoic acid], in assay [1], the “concentration with direct fungicide action on uredospores germination” value came out at 0.25 mg/mL. Besides, the growth inhibition result in the assay on Botrytis cinerea, in the assay on Phytophthora capcisi and in the assay with Collectotrichum sp was “inhibits the growth” each time.
